# Assay results taken from patent publication US6846934B2, “Photochromic diarylethene substituted with isoxazole group” (Korea Research Institute of Chemical Technology, priority 2001, dated 2005).
# Legend:
# [1] = Dispersability of diarylethene compounds in polymer solution (photochromic thin film composition); format: physicochemical; set-up: key: ◯ = clear solution at RT; Δ = medium solubility; X = insoluble, phase separation and unclear solution; conditions: 10 wt. % diarylethene, chloroform + trichloroethylene, room temperature
# Excerpt: Solubilities of diarylethene compounds of the present invention and known diarylethene compounds were compared by dispersing in polycarbonate (PC) solution or fluorinated polyethylene.
# Compared diarylethene compounds are 1-(6′-(5-phenylisoxazol) 2′-methylbenzo[b]thiophen-3′-yl)-2-(2″-methylbenzo[b]thiophen-3′-yl)hexafluorocyclopentene (PIMBTF6) prepared in Example 4 and 1,2-bis(2-methylbenzo[b]thiophen-3′-yl)hexafluorocyclopentene (BTF6) and 1-(6′-acetyl-2′-methylbenzo[b]thiophen-3′-yl)-2-(2″-methylbenzo[b]thiophen-3′-yl)hexafluorocyclopentene (AMBTF6) which are disclosed. Each thin film composition was prepared by dissolving 0.03 g (10 wt. %) of diarylethene compound and 0.27 g (90 wt. %) of polycarbonate (PC) or fluorinated polyethylene in a mixture of 1.2 g of chloroform and 1.2 g of trichloroethylene and stirring at room temperature for 6 hrs.
# [2] = Dispersability of diarylethene compounds in fluorinated diacrylate monomer (TFBDA) or THF; format: physicochemical; set-up: key: ◯ = clear solution at RT; Δ = medium solubility; X = insoluble, phase separation and unclear solution; conditions: room temperature
# Protocol: Solubilities of diarylethene compounds of the present invention and known diarylethene compounds were compared by dispersing in fluorinated diacrylate monomer (TFBDA) or THF.
# The same diarylethene compounds used in Examples 6-7 and Comparative Examples 1-4 are used to obtain the desired composition. Each thin film composition was prepared by dissolving 0.01 g (10 wt. %) of diarylethene compound and 0.002 g (2 wt. %) of 1-hydroxycyclohexyl phenyl ketone as photopolymerization initiator in 0.088 g (88 wt. %) of TFBDA and stirring at room temperature for 30 min.
# [3] = 90 wt. % fluorinated polyethylene (Xeonex 480)
SMILES,"Dispersability [1, 3]",Dispersability ([1]; 90 wt. % polycarbonate (PC)),Dispersability ([2]; 10 wt. % diarylethene in TFBDA),Dispersability ([2]; solvent THF)
"CC(=O)c1ccc2c(C3=C(c4c(C)sc5ccccc45)C(F)(F)C(F)(F)C3(F)F)c(C)sc2c1 [AMBTF6, 1-(6′-acetyl-2′-methylbenzo[b]thiophen-3′-yl)-2-(2″-methylbenzo[b]thiophen-3′-yl)hexafluorocyclopentene]",X,X,Δ,◯
"Cc1sc2ccccc2c1C1=C(c2c(C)sc3ccccc23)C(F)(F)C(F)(F)C1(F)F [BTF6, 1,2-bis(2-methylbenzo[b]thiophen-3′-yl)hexafluorocyclopentene]",X,◯,X,
"Cc1sc2cc(-c3cc(-c4ccccc4)on3)ccc2c1C1=C(c2c(C)sc3cc(-c4cc(-c5ccccc5)on4)ccc23)C(F)(F)C(F)(F)C1(F)F [DPIMBTF6, di(6′-phenylisoxazol-2′-methylbenzo[b]thiophen-3′-yl)hexafluorocyclopentene]",,,◯,

# Now from value to compound:
"Dispersability [1, 3]",Dispersability ([1]; 90 wt. % polycarbonate (PC)),Dispersability ([2]; 10 wt. % diarylethene in TFBDA),Dispersability ([2]; solvent THF),SMILES
,,X,◯,"Cc1sc2ccccc2c1C1=C(c2c(C)sc3cc(-c4cc(CO)on4)ccc23)C(F)(F)C(F)(F)C1(F)F [IMBTF6, 1-(6′-(5-hydroxymethylisoxazol)-2′-methylbenzo[b]thiophen-3′-yl)-2-(2″-methylbenzo[b]thiophen-3′-yl)hexafluorocyclopentene]"
Δ,◯,◯,◯,"Cc1sc2ccccc2c1C1=C(c2c(C)sc3cc(-c4cc(-c5ccccc5)on4)ccc23)C(F)(F)C(F)(F)C1(F)F [PIMBTF6, 1-(6′-(5-phenylisoxazol)-2′-methylbenzo[b]thiophen-3′-yl)-2-(2″-methylbenzo[b]thiophen-3′-yl)hexafluorocyclopentene]"
